Laboratory results reported in ChEMBL document CHEMBL5046270, “A Selective and Orally Bioavailable Quinoline-6-Carbonitrile-Based Inhibitor of CDK8/19 Mediator Kinase with Tumor-Enriched Pharmacokinetics” (J Med Chem, 2022).
pIC50, pKd: −log10 of the molar value. Active and inactive are the calls of the source. The calls are words filed in the database; no cut-off is given here.

Legend:
[1] = Inhibition of CDK8/CDK19 in MV4-11 cells and measured after 7 days by Spectra max iD5 microplate reader; type: cell-based, Homo sapiens
[2] = target: Cyclin-dependent kinase 19 (Homo sapiens) (UniProt Q9BWU1); experiment: Inhibition of human CDK19 at 2 uM by competition binding assay relative to control; details: values are per cent of control
[3] = target: T1, Mitogen-activated protein kinase kinase kinase kinase 2 (Homo sapiens) (UniProt Q12851); experiment: Inhibition of human MAP4K2 at 2 uM by competition binding assay relative to control; details: values are per cent of control
T1 sequence (whole entry): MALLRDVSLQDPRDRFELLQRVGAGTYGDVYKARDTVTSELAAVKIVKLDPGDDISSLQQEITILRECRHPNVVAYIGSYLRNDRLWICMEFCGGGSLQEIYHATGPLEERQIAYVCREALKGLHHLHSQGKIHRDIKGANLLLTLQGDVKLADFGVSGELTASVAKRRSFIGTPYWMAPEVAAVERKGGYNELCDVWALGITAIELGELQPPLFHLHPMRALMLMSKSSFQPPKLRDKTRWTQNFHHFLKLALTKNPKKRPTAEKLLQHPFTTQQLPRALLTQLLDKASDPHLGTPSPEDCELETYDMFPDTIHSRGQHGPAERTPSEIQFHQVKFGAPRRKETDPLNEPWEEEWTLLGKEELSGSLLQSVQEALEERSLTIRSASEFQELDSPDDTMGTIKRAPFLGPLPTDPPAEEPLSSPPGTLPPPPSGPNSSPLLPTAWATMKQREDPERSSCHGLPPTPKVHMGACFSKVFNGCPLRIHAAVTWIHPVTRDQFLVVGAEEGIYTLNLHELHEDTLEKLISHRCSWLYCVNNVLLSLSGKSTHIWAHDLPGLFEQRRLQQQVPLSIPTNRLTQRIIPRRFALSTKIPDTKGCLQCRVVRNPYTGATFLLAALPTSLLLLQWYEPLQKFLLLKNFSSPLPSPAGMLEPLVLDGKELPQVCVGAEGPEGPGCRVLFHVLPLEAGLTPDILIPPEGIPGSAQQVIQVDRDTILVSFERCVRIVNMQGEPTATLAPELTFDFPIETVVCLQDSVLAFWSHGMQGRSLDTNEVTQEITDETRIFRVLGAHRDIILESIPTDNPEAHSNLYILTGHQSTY

[4] = target: T2, Cyclin-C/Cyclin-dependent kinase 19 (Homo sapiens) (UniProt Q9BWU1+P24863); experiment: Binding affinity to recombinant human CDK19/cyclinC assessed as rate constant (kon) by TR FRET based assay; type: protein-complex assay
[5] = target: T3, CDK8/Cyclin C (Homo sapiens) (UniProt P49336+P24863); experiment: Binding affinity to kinase tracer 236 binding to His tagged recombinant human CDK8/cyclinC assessed as rate constant (koff) by TR FRET based assay; type: protein-complex assay
[6] = target: T2, Cyclin-C/Cyclin-dependent kinase 19 (Homo sapiens); experiment: Binding affinity to recombinant human CDK19/cyclinC assessed as rate constant (koff) by TR FRET based assay; type: protein-complex assay
[7] = target: T3, CDK8/Cyclin C (Homo sapiens); experiment: Binding affinity to kinase tracer 236 binding to His tagged recombinant human CDK8/cyclinC assessed as mean residence time by TR FRET based assay; type: protein-complex assay
[8] = target: T2, Cyclin-C/Cyclin-dependent kinase 19 (Homo sapiens); experiment: Binding affinity to recombinant human CDK19/cyclinC assessed as half life by TR FRET based assay; type: protein-complex assay
CDK8/Cyclin C = CDK8/Cyclin C (Homo sapiens, UniProt P49336); experiment: Binding affinity to kinase tracer 236 binding to His tagged recombinant human CDK8/cyclinC assessed as dissociation constant by TR FRET based assay; type: protein-complex assay
HEK293 [9] = experiment: Inhibition of TNFalpha induced CDK8/19 dependent NF kappa B activity in Wild type HEK293 cell for 3 hrs by qt-PCR analysis; type: functional, cell-based; details: Homo sapiens
HEK293 [10] = experiment: Inhibition of TNFalpha induced CDK8/19 dependent NF kappa B activity CDK8/19 in double knockout HEK293 cell for 3 hrs by qt-PCR analysis; type: functional, cell-based; details: Homo sapiens
HEK293 [11] = experiment: Effect of compound on HEK293 cells assessed as mRNA expression in CDK8/19 dependent MYC gene in presence of pretreatment with TNFalpha for 2 hr by qPCR analysis; type: functional, cell-based; details: Homo sapiens
HEK293 [12] = experiment: Effect of compound on HEK293 cells assessed as expression of mRNA in NFkappaB induced CXCL8 gene in presence of pretreatment with TNFalpha for 2 hr by qPCR analysis; type: functional, cell-based; details: Homo sapiens
[13] = Downregulation of CDK8/19 in HEK293 cells assessed as mRNA expression level in MYC gene at 1 uM for 3 hrs pretreatment and measured after 24 hr post wash-off by qt-PCR analysis; type: functional; details: Homo sapiens, time 27 hrs
[14] = Plasma C0 in BALB/c mouse xenografted with mouse CT26 cells at 2.5 mg/kg, iv by LC-MS/MS analysis; type: ADME, organism-based
[15] = Elimination rate constant in tumor of BALB/c mouse xenografted with mouse CT26 cells at 2.5 mg/kg, iv by LC-MS/MS analysis; type: ADME, organism-based, Neoplasm
[16] = Half life in tumor of BALB/c mouse xenografted with mouse CT26 cells at 2.5 mg/kg, iv by LC-MS/MS analysis; type: ADME, organism-based, Neoplasm
[17] = Cmax in tumor of BALB/c mouse xenografted with mouse CT26 cells at 2.5 mg/kg, iv by LC-MS/MS analysis; type: ADME, organism-based, Neoplasm; design: route intravenous, dose 2.5 mg/kg
[18] = Elimination rate constant in plasma of BALB/c mouse xenografted with mouse CT26 cells at 2.5 mg/kg, iv by LC-MS/MS analysis; type: ADME, organism-based
[19] = Cmax in plasma of BALB/c mouse xenografted with mouse CT26 cells at 100 mg/kg, po by LC-MS/MS analysis; type: ADME, organism-based; design: route oral, dose 100 mg/kg
[20] = Oral bioavailability in plasma of BALB/c mouse xenografted with mouse CT26 cells at 100 mg/kg by LC-MS/MS; type: ADME, organism-based
CT26 = experiment: Downregulation of CCL12 gene expression in BALB/c mouse xenografted with mouse CT26 cells at 100 mg/kg, po 2 to 12 hrs […]; type: functional, organism-based; details: time 2-12 hrs, TDE = time-dependent effect
[21] = Drug accumulation in liver of BALB/c mouse bearing CT26 tumor model at 100 mg/kg, po for 7 days by LC-MS/MS analysis; type: ADME, organism-based; details: in vivo, 168 h, time 7 day
MV4-11 = experiment: Antitumor activity against human luciferase expressing MV4-11 AML cells xenografted in NOD SCID NSG mouse assessed as supression of tumor growth at 40 mg/kg, po bid for 4 weeks by bioluminescence imaging method; type: functional, organism-based
[22] = Half life in plasma of BALB/c mouse xenografted with mouse CT26 cells at 2.5 mg/kg, iv by LC-MS/MS analysis; type: ADME, organism-based
[23] = AUC (0-24hrs) in plasma of BALB/c mouse xenografted with mouse CT26 cells at 2.5 mg/kg, iv by LC-MS/MS analysis; type: ADME, organism-based; design: time < 24 hr, route intravenous, dose 2.5 mg/kg; details: in vivo
[24] = Half life in tumor of BALB/c mouse xenografted with mouse CT26 cells at 100 mg/kg, po by LC-MS/MS analysis; type: ADME, organism-based, Neoplasm
[25] = AUC (0-24hrs) in tumor of BALB/c mouse xenografted with mouse CT26 cells at 100 mg/kg, po by LC-MS/MS analysis; type: ADME, organism-based, Neoplasm; design: time < 24 hr, route oral, dose 100 mg/kg

Chain of CDK8/Cyclin C (P49336 whole entry): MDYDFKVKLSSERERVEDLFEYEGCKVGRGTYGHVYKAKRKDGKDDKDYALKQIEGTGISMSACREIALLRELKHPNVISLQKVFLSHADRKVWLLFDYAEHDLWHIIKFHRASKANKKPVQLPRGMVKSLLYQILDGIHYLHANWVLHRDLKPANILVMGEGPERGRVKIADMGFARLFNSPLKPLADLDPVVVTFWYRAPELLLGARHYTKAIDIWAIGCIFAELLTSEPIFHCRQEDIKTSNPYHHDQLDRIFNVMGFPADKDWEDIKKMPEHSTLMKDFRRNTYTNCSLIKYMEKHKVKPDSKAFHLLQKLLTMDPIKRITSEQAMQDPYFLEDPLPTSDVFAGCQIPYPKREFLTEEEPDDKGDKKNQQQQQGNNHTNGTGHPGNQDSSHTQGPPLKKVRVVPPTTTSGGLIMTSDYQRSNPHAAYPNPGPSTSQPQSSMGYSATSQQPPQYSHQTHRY
Chain of CDK8/Cyclin C (P24863 whole entry, further chain): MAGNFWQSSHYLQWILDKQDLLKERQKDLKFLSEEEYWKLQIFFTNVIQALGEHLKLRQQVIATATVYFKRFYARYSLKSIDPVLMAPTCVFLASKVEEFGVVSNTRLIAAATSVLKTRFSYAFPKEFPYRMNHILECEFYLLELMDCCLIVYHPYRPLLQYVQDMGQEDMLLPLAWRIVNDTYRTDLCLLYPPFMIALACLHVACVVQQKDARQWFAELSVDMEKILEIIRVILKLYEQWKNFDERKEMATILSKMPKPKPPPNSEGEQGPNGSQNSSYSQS
Chain of Cyclin-dependent kinase 19 (Homo sapiens) (Q9BWU1 whole entry): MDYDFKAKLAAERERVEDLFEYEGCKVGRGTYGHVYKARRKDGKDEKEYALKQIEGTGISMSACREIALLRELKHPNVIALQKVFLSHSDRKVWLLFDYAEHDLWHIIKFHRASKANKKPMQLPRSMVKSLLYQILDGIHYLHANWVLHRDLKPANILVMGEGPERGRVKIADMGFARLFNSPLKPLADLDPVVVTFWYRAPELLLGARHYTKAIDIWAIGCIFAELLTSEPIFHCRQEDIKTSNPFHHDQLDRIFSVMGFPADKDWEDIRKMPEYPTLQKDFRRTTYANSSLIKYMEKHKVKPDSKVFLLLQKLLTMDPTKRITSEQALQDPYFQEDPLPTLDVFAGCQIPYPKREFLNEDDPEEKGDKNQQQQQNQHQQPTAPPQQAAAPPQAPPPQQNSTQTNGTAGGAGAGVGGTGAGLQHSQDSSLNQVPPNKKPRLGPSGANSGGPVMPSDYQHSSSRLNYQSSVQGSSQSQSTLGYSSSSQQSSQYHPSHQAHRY

pIC50 [1]: 6.97 | residual binding, % of control [2]: 13% | residual binding, % of control [3]: 29% | K [4]: 9.39 10^6/M/s | K [5]: 0.00122 s⁻¹ | K [6]: 0.00272 s⁻¹ | MRT [7]: 13.6 min | T1/2 [8]: 4.25 min | pKd (CDK8/Cyclin C): 8.86 | C0 [14]: 503 ng/mL | k el [15]: 1.67e-05 s⁻¹ | half-life [16]: 726 min | Cmax [17]: 488 ng/mL | k el [18]: 0.000258 s⁻¹ | Cmax [19]: 144 ng/mL | bioavailability [20]: 16.5% | Drug uptake [21]: Active | half-life [22]: 45 min | AUC [23]: 331 ng·h/mL | half-life [24]: 436 min | AUC(0-t) at 24 h [25]: 88600 ng·h/mL
SMILES: CN1CCN(C(=O)c2ccc3cc(CCNc4ccnc5ccc(C#N)cc45)ccc3c2)CC1
Activity (HEK293 [9]): Active | Activity (HEK293 [10]): inactive | Activity (HEK293 [11]): Active | Activity (HEK293 [12]): Active | inhibition at 1 µM [13]: 30% | Activity (CT26): Tde | Activity (MV4-11): Active
